Reference: PubChem BioAssay AID434987 (Southern Research Specialized Biocontainment Screening …, 2010)
Active and inactive are the calls of the source. No rule for the calls is given here.

Test system: M. tuberculosis H37Rv growth inhibition with meropenem
Assay: dose response, H37Rv, with and without meropenem (AID 434987);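 also: growth over 7 days at 37 °C before Alamar Blue read on day 9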
[1] = M. tuberculosis H37Rv growth inhibition, measured here: IC50 without meropenem
[2] = M. tuberculosis H37Rv growth inhibition, measured here: IC90 without meropenem
[3] = measured here: IC90 with meropenem

## Cc1ccc(SCc2c(-c3ccccc3)nn(C)c2Cl)cc1
  IC50: 20.9 µM
[1]
  IC50: 58.7 µM
[2]
  IC90: > 100 µM
[3]
  IC90: > 100 µM

## CC1CCc2c(sc(NC(=O)CCCn3cnc([N+](=O)[O-])n3)c2C(N)=O)C1 (stereo unspecified)
  IC50: 12.8 µM
[1]
  IC50: 32.7 µM
[2]
  IC90: > 100 µM
[3]
  IC90: 90.4 µM

## COc1cc(CNc2ccc(NC(C)=O)cc2)ccc1OCc1ccccc1C
  IC50: > 100 µM (inactive)
[1]
  IC50: > 100 µM
[2]
  IC90: > 100 µM
[3]
  IC90: > 100 µM

## CC(C)CC(=O)NC(=S)Nc1ccc(N2CCN(C(=O)c3cccs3)CC2)cc1
  IC50: > 100 µM (inactive)
[1]
  IC50: > 100 µM
[2]
  IC90: > 100 µM
[3]
  IC90: > 100 µM

## Cc1ccc(-n2c(SCC(=O)OC(C)C)nnc2-c2ccco2)cc1
  IC50: 37.6 µM (inactive)
[1]
  IC50: 62 µM
[2]
  IC90: > 100 µM
[3]
  IC90: > 100 µM

## N#Cc1ccccc1/C=N/Nc1nc(-c2ccccc2)c2cc(Br)ccc2n1
  IC50: > 100 µM (inactive)
[1]
  IC50: > 100 µM
[2]
  IC90: > 100 µM
[3]
  IC90: > 100 µM

## Cc1ccc(C)c(N2CCN(C3CCCC(C)C3)CC2)c1 (stereo unspecified)
  IC50: 37.9 µM (inactive)
[1]
  IC50: 48.7 µM
[2]
  IC90: > 100 µM
[3]
  IC90: 48.2 µM

## Cc1nnnn1/C(=C\c1ccccc1)C(=O)OCC(=O)NC1CCCCC1
  IC50: 8.62 µM (inactive)
[1]
  IC50: 18.1 µM
[2]
  IC90: 27 µM
[3]
  IC90: 17.6 µM

## O=C(O/N=C\c1ccc(N2CCCCC2)c([N+](=O)[O-])c1)c1c(F)cccc1F
  IC50: > 100 µM (inactive)
[1]
  IC50: > 100 µM
[2]
  IC90: > 100 µM
[3]
  IC90: > 100 µM

## CCOc1cc(CNCCN(C)C)c(Cl)cc1OCC(=O)NCCc1ccccc1
  IC50: > 100 µM (inactive)
[1]
  IC50: > 100 µM
[2]
  IC90: > 100 µM
[3]
  IC90: > 100 µM

## COC(=O)c1c(-c2ccc(OC)cc2)oc2ccc(-c3cc(OC)c(OC)c(OC)c3)cc12
  IC50: 7.72 µM
[1]
  IC50: > 100 µM
[2]
  IC90: > 100 µM
[3]
  IC90: > 100 µM

## O=C(N/N=C/c1c(O)n(Cc2ccc(F)cc2)c(=S)[nH]c1=O)c1ccncc1
  IC50: 7.75 µM (inactive)
[1]
  IC50: 11.5 µM
[2]
  IC90: 12.9 µM
[3]
  IC90: 9.8 µM

## CC(=O)[C@@]1(O)CC[C@H]2[C@@H]3C[C@H](C)C4=CC(=O)CC[C@]4(C)[C@H]3CC[C@@]21C
  IC50: > 100 µM (inactive)
[1]
  IC50: > 100 µM
[2]
  IC90: > 100 µM
[3]
  IC90: > 100 µM

## C/C(=N\NC(N)=S)c1ccc(-n2ccnc2)cc1
  IC50: 6.58 µM
[1]
  IC50: > 100 µM
[2]
  IC90: > 100 µM
[3]
  IC90: > 100 µM

## COc1ccc(OC)c(NC(=O)CS(=O)(=O)c2ccccc2)c1
  IC50: 12.1 µM (inactive)
[1]
  IC50: 28.7 µM
[2]
  IC90: > 100 µM
[3]
  IC90: 14.3 µM

## c1ccc2c(c1)CC1CNCc3cccc(c31)S2 (stereo unspecified)
  IC50: 47.4 µM (inactive)
[1]
  IC50: > 100 µM
[2]
  IC90: > 100 µM
[3]
  IC90: > 100 µM

## CCOC(=O)c1sc(NC(=O)CN2CCN(c3ccc(OC)cc3)CC2)nc1C
  IC50: 68.2 µM (inactive)
[1]
  IC50: 98.9 µM
[2]
  IC90: > 100 µM
[3]
  IC90: > 100 µM

## CC(=O)Nc1scc(C)c1-c1nc2ccccc2s1
  IC50: > 100 µM (inactive)
[1]
  IC50: > 100 µM
[2]
  IC90: > 100 µM
[3]
  IC90: > 100 µM

## COC(=O)c1cnn(-c2ccccc2)c1/C=N/NC(=S)Nc1ccc(Cl)cc1
  IC50: 33.1 µM
[1]
  IC50: > 100 µM
[2]
  IC90: > 100 µM
[3]
  IC90: > 100 µM

## Cc1cc(C)cc(NC(=O)c2cc(Cl)sc2Cl)c1
  IC50: 4.84 µM
[1]
  IC50: > 100 µM
[2]
  IC90: > 100 µM
[3]
  IC90: 7.73 µM

## CCOc1ccc(N(CC(=O)NCCSCc2ccccc2Cl)S(C)(=O)=O)cc1
  IC50: > 100 µM (inactive)
[1]
  IC50: > 100 µM
[2]
  IC90: > 100 µM
[3]
  IC90: > 100 µM

## COc1ccc([N+](=O)[O-])cc1NC(=O)c1ccc(Br)s1
  IC50: > 100 µM (inactive)
[1]
  IC50: > 100 µM
[2]
  IC90: > 100 µM
[3]
  IC90: > 100 µM

## Cc1ccccc1CSc1nnc(C)c(=O)n1N
  IC50: 19.5 µM (inactive)
[1]
  IC50: 45.4 µM
[2]
  IC90: > 100 µM
[3]
  IC90: 32.3 µM

## COc1cccc(/C=C/c2[nH]c(=O)[nH]c(=O)c2[N+](=O)[O-])c1O
  IC50: 9.24 µM
[1]
  IC50: 24.2 µM
[2]
  IC90: 26.6 µM
[3]
  IC90: 15.9 µM

## CCC(CC)Nc1ccc(C(CC(N)=O)NC(=O)c2ccccc2)cc1[N+](=O)[O-] (stereo unspecified)
  IC50: > 100 µM (inactive)
[1]
  IC50: > 100 µM
[2]
  IC90: > 100 µM
[3]
  IC90: > 100 µM

## CC(=O)c1ccc(NC(=S)Nc2ccc(N3CCOCC3)cc2)cc1
  IC50: 21.6 µM
[1]
  IC50: > 100 µM
[2]
  IC90: > 100 µM
[3]
  IC90: > 100 µM

## CC(C)CCN1CC(O)=C(c2nc3ccccc3[nH]2)C1=N
  IC50: 6.68 µM
[1]
  IC50: 73 µM
[2]
  IC90: > 100 µM
[3]
  IC90: > 100 µM

## CSc1ccccc1C(=O)Nc1cccc([N+](=O)[O-])c1C
  IC50: > 100 µM (inactive)
[1]
  IC50: > 100 µM
[2]
  IC90: > 100 µM
[3]
  IC90: > 100 µM

## O=C1CCNc2c(Cl)cccc21
  IC50: > 100 µM (inactive)
[1]
  IC50: > 100 µM
[2]
  IC90: > 100 µM
[3]
  IC90: > 100 µM

## CCOC(=O)c1c(C)[nH]c(C)c1C(=O)COC(=O)c1ccc(S(=O)(=O)N(CC)CC)cc1
  IC50: 92.6 µM (inactive)
[1]
  IC50: > 100 µM
[2]
  IC90: > 100 µM
[3]
  IC90: > 100 µM

## CCCC(C)NC(=O)c1ccccc1SC (stereo unspecified)
  IC50: 36.4 µM (inactive)
[1]
  IC50: 58.5 µM
[2]
  IC90: > 100 µM
[3]
  IC90: > 100 µM

## COc1ccc(-c2cc(=Nc3ccc(C)cc3)c3ccccc3o2)cc1
  IC50: 78.3 µM (inactive)
[1]
  IC50: > 100 µM
[2]
  IC90: > 100 µM
[3]
  IC90: 98.3 µM

## Nc1ncnc2c1c(-c1ccc(Oc3ccccc3)cc1)cn2C1CCCC1
  IC50: 17.1 µM (inactive)
[1]
  IC50: 26.4 µM
[2]
  IC90: 42.5 µM
[3]
  IC90: 60.3 µM

## O=C(Nc1nc(-c2ccc3c(c2)OCCO3)cs1)c1ccc(S(=O)(=O)N2CCCCC2)cc1
  IC50: > 100 µM (inactive)
[1]
  IC50: > 100 µM
[2]
  IC90: > 100 µM
[3]
  IC90: > 100 µM

## Cc1ccc(-n2ncc3c(=O)n(CC#N)cnc32)cc1C
  IC50: 20.9 µM
[1]
  IC50: 51.3 µM
[2]
  IC90: > 100 µM
[3]
  IC90: > 100 µM

## O=C(Nc1ccccc1Br)c1cccc2ccccc12
  IC50: > 100 µM (inactive)
[1]
  IC50: > 100 µM
[2]
  IC90: > 100 µM
[3]
  IC90: > 100 µM

## c1ccc(OCc2nnc(-c3ccccc3)o2)cc1
  IC50: 1.4 µM
[1]
  IC50: 80.4 µM
[2]
  IC90: > 100 µM
[3]
  IC90: > 100 µM

## CC(C(=O)Nc1cc([N+](=O)[O-])ccc1Cl)N1CCN(c2ccccc2O)CC1 (stereo unspecified)
  IC50: > 100 µM (inactive)
[1]
  IC50: > 100 µM
[2]
  IC90: > 100 µM
[3]
  IC90: > 100 µM

## CCOC(=O)N1CCC(N2CCN(S(=O)(=O)c3ccc(Cl)cc3)CC2)CC1
  IC50: > 100 µM (inactive)
[1]
  IC50: > 100 µM
[2]
  IC90: > 100 µM
[3]
  IC90: > 100 µM
